Measurements from USRE47193E1, “Selectively substituted quinoline compounds” (EISAI R&D MANAGEMENT CO., LTD., priority 2013, dated 2019).

Tested on: NZB/W lupus disease model
Assay: NZBxNZW (NZB/W) lupus disease model
Format: in vivo, mouse
Settings: for mortality: 33, 100 or 300 mg/kg QD PO, 21 weeks of treatment; for impact on anti-dsDNA titers: after 17 weeks of dosing, at 46 weeks of age
Protocol: FIG. 2A through FIG. 2C show results of testing ER-899742 in the NZBxNZW strain (abbreviated hereafter as NZBWF1/J or NZB/W) lupus disease model. Figure Legend: Female NZBWF1/J mice were received at 5 weeks of age, baseline bleeds were performed, and mice were monitored for disease progression by following anti-dsDNA titers. At 27 weeks of age, mice were randomized into groups with equivalent median anti-dsDNA titers and treated at 29 weeks of age with Vehicle (Veh; 0.5% methyl-cellulose) alone or 33, 100, or 300 mg/kg once-a-day orally (QD PO). At 46 weeks of age after 17 weeks of treatment mice were bled and tested for anti-dsDNA titers. All mice were sacrificed at 50 weeks of age (21 weeks of compound treatment). (FIG. 2A) Just prior to termination at 50 weeks of age (following 21 weeks of treatment), urine was collected from individual mice, and the Urinary Albumin Creatinine Ratio (UACR, proteinuria) was determined for each animal as an indirect measure of kidney function. (FIG. 2B) Timecourse of mortality observed in this study for the highest and lowest dose groups. […] (FIG. 2C) Impact of treatment on anti-dsDNA titers after 17 weeks of dosing, at 46 weeks of age.
FIG. 4A through FIG. 4C show results of testing ER-899464 in the NZB/W disease model in the same experiment as FIG. 2A. Figure Legend: (FIG. 4A) Just prior to termination at 50 weeks of age (following 21 weeks of treatment), urine was collected from individual mice, and the Urinary Albumin Creatinine Ratio (UACR, proteinuria) was determined for each animal as an indirect measure of kidney function. (FIG. 4B) Summary of mortality observed in this study for the highest and lowest dose groups. […] ([…]) Impact of treatment on anti-dsDNA titers after 17 weeks of dosing, at 46 weeks of age.
Mouse Lupus Disease Models.
Mouse lupus disease model strains. Female NZBWF1/J mice were purchased from Jackson Labs (Bar Harbor, Me.), both of which manifest with spontaneous lupus disease. Female DBA/1 mice were purchased from Harlan Laboratories (Indianapolis, Ind.) and at the indicated ages given an intraperitoneal injection of 0.5 ml pristane (2,6,10,14-Tetramethylpentadecane; Sigma, St. Louis, Mo.) to chemically induce lupus disease or of 0.5 ml PBS to generate age-matched, non-diseased control mice.
Female NZBWF1/J mice were received at 5 weeks of age, baseline bleeds were performed, and mice were monitored for disease progression by following anti-dsDNA titers. At 27 weeks of age, mice were randomized into groups with equivalent median anti-dsDNA titers and treated at 29 weeks of age with Vehicle (Veh; 0.5% methyl-cellulose) alone or 33, 100, or 300 mg/kg once-a-day orally (QD PO). At 46 weeks of age after 17 weeks of treatment, mice were bled and tested for anti-dsDNA titers. All mice were sacrificed at 50 weeks of age (21 weeks of compound treatment).
At the end of the experiment kidneys were collected from the animals tested in FIG. 2A through 2C, fixed in 10% formalin for 24 hours, embedded in paraffin, and H&E stained sections were generated for histopathology assessment in a blinded fashion (Grade 0/1+: WNL to minimal; Grade 2: Mild; Grade 3: Moderate to Marked; Grade 4: Severe).
Assessment of auto-antibody titers by ELISA. Anti-dsDNA, -Sm/nRNP, -RiboP, and -Histone titers were evaluated by standard ELISA approach. Briefly, 96-well EIA/RIA ELISA plates (Corning) were coated with 100 ul of diluted antigen in PBS for 90 minutes at room temperature as follows (final concentrations indicated): 10 U/ml Sm/nRNP complex (Immunovision), 10 ug/ml calf thymus dsDNA (Sigma), 5 U/ml RiboP (Immunovision), and 5 ug/ml Histone (Immunovision). Plates were washed with PBS/0.05% Tween20 (washing buffer) and blocked overnight with PBS/1% BSA (blocking buffer) at 4° C. […]

[1] = several doses between 33 and 300 mg/kg

SMILES | mortality | impact on anti-dsDNA titers | proteinuria (UACR) [1] | survival [1] | % combined incidence of Grade 3 and 4 (33 mpk) [%] | Number of mice with GN Score 0 (33 mpk QD PO, kidney histopathology, Grade 0/1+: WNL to minimal) | Number of mice with GN Score 2+ (33 mpk, Grade 2: Mild) | Number of mice with GN Score 3+ (33 mpk, Grade 3: Moderate to Marked) | Number of mice with GN Score 4+ (33 mpk, Grade 4: Severe) | % combined incidence of Grade 3 and 4 (100 mpk) [%] | Number of mice with GN Score 0 (100 mpk) | Number of mice with GN Score 2+ (100 mpk) | Number of mice with GN Score 3+ (100 mpk) | Number of mice with GN Score 4+ (100 mpk) | % combined incidence of Grade 3 and 4 (300 mpk) [%] | Number of mice with GN Score 0 (300 mpk) | Number of mice with GN Score 2+ (300 mpk) | Number of mice with GN Score 3+ (300 mpk) | Number of mice with GN Score 4+ (300 mpk) | histological signs of glomerulonephritis [1]
C[C@@H]1CN(c2ccc(C#N)c3ncccc23)C[C@H](C(=O)NC2CCN(C)CC2)O1 [ER-899464, (2R,6R)-4-(8-cyanoquinolin-5-yl)-6-methyl-N-(1-methylpiperidin-4-yl)morpholine-2-carboxamide] | No mortality was seen in the middle dose group | No statistically significant effect was observed | significantly reduced proteinuria | significant survival benefit | – | – | – | – | – | – | – | – | – | – | – | – | – | – | – | –
C[C@@H]1CN(c2ccc(C#N)c3ncccc23)C[C@H](C(=O)N[C@H]2CNC[C@H]2F)O1.Cl [ER-899742, (2R,6R)-4-(8-cyanoquinolin-5-yl)-N-[(3S,4R)-4-fluoropyrrolidin-3-yl]-6-methylmorpholine-2-carboxamide hydrochloride] | No mortality was seen with compound treatment | No statistically significant effect was observed | significantly reduced proteinuria | pronounced survival benefit | 11 | 11 | 5 | 1 | 1 | 6 | 15 | 1 | 1 | 0 | 11 | 9 | 7 | 0 | 2 | significantly reduced
